Data: patent US20250186456A1, “PYRIMIDINE-FUSED CYCLIC COMPOUND AND PREPARATION METHOD AND USE THEREOF” (Genfleet Therapeutics (Shanghai) Inc., priority 2021, published 2025)
Read-outs that look alike come from different tables or passages of the source.

Key:
[1] = tested on: p-ERK in AGS cells (KRAS G12D mutation); test: Cell p-ERK assay (HTRF, Advance ERK phospho-T202/Y204 kit); assay type: cell-based, human; conditions: AGS cells, 3 hours incubation with compound, HTRF, read-out: AGS p-ERK IC50
Description: AGS was purchased from ATCC; catalog No: CRL-1739; F12K was purchased from Gibco; catalog No: 21127-022; FBS was purchased from Gibco; catalog No: 10099-141C; trypsin (containing EDTA) was purchased from Gibco, catalog No: 25200-072; DMSO was purchased from VWRAMRESCO; catalog No: 0231-500 ML; 96-well cell culture plates were purchased from Corning; catalog No: 3599; white opaque 96-well plates were purchased from Cisbio; catalog No: 66PL96025; Advance ERK phospho-T202/Y204 kit was purchased from Cisbio; catalog No: 64AERPEH; cell counters were purchased from CHEMOMETEC; model No: NC-200; microplate reader was purchased from PerkinElmer; model No: Envison.
AGS is an endogenous human gastric adenocarcinoma cell line containing the KRAS^G12D mutation, cultured in F12K+10% FBS medium. On the first day of the experiment, cells in the logarithmic growth phase were taken, digested with trypsin (containing EDTA), collected, and counted. Approximately 20000 cells/well were seeded in a 96-well cell culture plate and cultured overnight in an incubator with 5% CO2. 1000X stock solutions of compounds at a 3.16-fold concentration gradient were prepared using DMSO, and diluted 200-fold into a 5X compound stock solution using the medium described above. The 5X compound stock solution was added to each cell culturing well the day after cell seeding at a final concentration of 1X and a DMSO content of 0.1%. DMSO was used as a control in the experiment. After the compound was added and the incubation was kept for 3 hours, the medium in the culture wells was removed. 50 μl of Cell lysis solution (from Advance ERK phospho-T202/Y204 kit, the same below) was added to each well, mixed well, and incubated for 30 minutes and then 16 μl of the mixed solution was transferred to a white opaque 96-well plate, another 16 μl of cell lysis solution was added to a well as a blank well. After transferring, 4 μl of p-ERK HTRF antibody mixture (from Advance ERK phospho-T202/Y204 kit) was added to each well. After incubation for 4 hours, HTRF fluorescence value (RLU) was read by a microplate reader, and p-ERK level inhibition rate (IR (%)=(RLU control-RLU compound)/(RLU control-RLU blank)×100%) of the compounds was calculated. The concentration of the compounds and corresponding cell p-ERK level inhibition rate were fitted using Prism 8 four-parameters method, and the IC50 value was calculated.

AGS cells (KRAS G12D) = test: Cell proliferation inhibition assay, 3D, CellTiter-Glo 3D, AGS; assay type: cell-based, human; conditions: Homo sapiens, 120 h, AGS 3D sphere model, 5 days incubation
From the text: AsPC-1 was purchased from ATCC; catalog No: CRL-1682; AGS was purchased from ATCC; catalog No: CRL-1739; RPMI1640 was purchased from Gibco; catalog No: 11875-093 2235123; F12K was purchased from Gibco; catalog No: 21127-022; FBS was purchased from Gibco; catalog No: 10099-141C; trypsin (containing EDTA) was purchased from Gibco; catalog No: 25200-072; CellTiter Glo-3D was purchased from Progema; catalog No: G9683; 384-well sphere plates were purchased from Corning; catalog No: 3830; white opaque 384-well plates were purchased from Corning; catalog No: 3570; cell counters were purchased from CHEMOMETEC; model: NC-200; microplate reader was purchased from PerkinElmer; model: Envison;
AsPC-1 is an endogenous human pancreatic cancer cell containing KRAS^G12D mutation, cultured in RPMI-1640 medium containing 10% FBS; AGS is a human gastric cancer cell line containing KRAS^G12D, cultured in F-12K medium containing 10% FBS. Cells in the logarithmic growth phase were taken, digested with trypsin (containing EDTA), collected, and counted. 800 AsPC-1 cells/well or 400 AGS cells/well, respectively, were seeded in a 384-well sphere plate and cultured overnight at 5% CO2 to establish a 3D cell model. 1000X stock solutions of compounds at a 3.16-fold concentration gradient of were prepared using DMSO, diluted 100-fold into a 10X compound stock solution using the medium described above. The 10X compound stock solution was added to each cell on 2nd day after cell seeding at a final concentration of 1X and a DMSO content of 0.1%. DMSO was used as a control in the experiment, and the medium was used as blank. After the addition of the compounds, the cells were incubated for 5 days. 30 μl of CellTiter-Glo work solution was added to each well, mixed well, and incubated for 30 minutes. After standing at room temperature for 30 minutes, 40 μl of the mixed solution was transferred to an opaque 384-well plate with a white clear bottom. Luminescence chemiluminescence value was read by a microplate reader, and the cell proliferation inhibition rate (IR (%)=(RLU control-RLU compound)/(RLU control-RLU blank)×100%) was calculated. The gradiently diluted concentration of the compounds and corresponding cell proliferation inhibition rate were fitted using XLFit four-parameters method, and the IC50 value was calculated. […] The results of some exemplary compounds are shown in Table 2 (“−” represents untested).

Structure (SMILES)	IC50 [1] [nM]	IC50 (AGS cells (KRAS G12D)) [nM]	IC50 ([1]; Homo sapiens) [nM]
CCc1cccc2cc(O)cc(-c3cc4nc(OC[C@@]56CCCN5C[C@H](F)C6)nc5c4c(c3Cl)OC[C@@H]3[C@@H]4CC[C@H](CN53)N4)c12 [Example Z381, 4-((5aS,6S,9R)-3-Chloro-13-(((2R,7aS)-2-Fluorotetrahydro-1H-Pyrrolizin-7a (5H)-Yl)Methoxy)-5a,6,7,8,9,10-Hexahydro-5H-6,9-Epiminoazepino[2′,1′: 3,4][1,4]Oxazepino[5,6,7-De]Quinazolin-2-Yl)-5-Ethylnaphthalen-2-Ol]	436	–	–
CCc1cccc2cccc(-c3nc4c5c(nc(OC[C@@]67CCCN6C[C@H](F)C7)nc5c3F)N3C[C@H]5CC[C@H](N5)[C@H]3[C@H](CC)O4)c12 [Example Z592, (5S,5aS,6S,9R)-5-ethyl-2-(8-ethylnaphthalen-1-yl)-1-fluoro-12-(((2R,7aS)-2-fluorotetrahydro-1H-pyrrolizin-7a (5H)-yl)methoxy)-5a,6,7,8,9,10-hexahydro-5H-4-oxa-3,10a,11,13,14-pentaaza-6,9-methanonaphtho[1,8-ab]heptalene]	–	354	–
C#Cc1c(F)ccc2cccc(-c3nc4c5c(nc(OCC67CC(=C)CN6C[C@@H]6C[C@@H]67)nc5c3F)N3C[C@H]5CC[C@H](N5)[C@H]3[C@H](C)O4)c12 (stereo partly drawn) [Example Z605, (5S,5aS,6S,9R)-2-(8-ethynyl-7-fluoronaphthalen-1-yl)-1-fluoro-5-methyl-12-(((1aR,6bS)-5-methylenehexahydrocyclopropa[a]pyrrolizin-6a (4H)-yl)methoxy)-5a,6,7,8,9,10-hexahydro-5H-4-oxa-3,10a,11,13,14-pentaaza-6,9-methanonaphtho[1,8-ab]heptalene]	–	–	554
C#Cc1c(F)ccc2cccc(-c3nc4c5c(nc(OCC67CC(F)CN6CCC7=C)nc5c3F)N3C[C@H]5CC[C@H](N5)[C@H]3[C@H](C)O4)c12 (stereo partly drawn) [Example Z609, (5S,5aS,6S,9R)-2-(8-ethynyl-7-fluoronaphthalen-1-yl)-1-fluoro-12-((6-fluoro-1-methylenetetrahydro-1H-pyrrolizin-7a (5H)-yl)methoxy)-5-methyl-5a,6,7,8,9,10-hexahydro-5H-4-oxa-3,10a,11,13,14-pentaaza-6,9-methanonaphtho[1,8-ab]heptalene]	–	–	49.2
C#Cc1c(F)ccc2cccc(-c3nc4c5c(nc(OC[C@]67CCCN6C[C@@H]6C[C@@H]67)nc5c3F)N3C[C@H]5CC[C@H](N5)[C@H]3[C@H](C)O4)c12 [Example Z626-1, (5S,5aS,6S,9R)-2-(8-ethynyl-7-fluoronaphthalen-1-yl)-1-fluoro-12-(((1aR,6aR,6bS)-hexahydrocyclopropa[a]pyrrolizin-6a (4H)-yl)methoxy)-5-methyl-5a,6,7,8,9,10-hexahydro-5H-4-oxa-3,10a, 11,13, 14-pentaaza-6,9-methanonaphtho[1,8-ab]heptalene]	–	502	411
C#Cc1c(F)ccc2cccc(-c3nc4c5c(nc(OCC67CCCN6CC(=CF)C7)nc5c3F)N3C[C@H]5CC[C@H](N5)[C@H]3[C@@H](C)O4)c12 (stereo partly drawn) [Example Z630, (5R,5aS,6S,9R)-2-(8-ethynyl-7-fluoronaphthalen-1-yl)-1-fluoro-12-((2-(fluoromethylene)tetrahydro-1H-pyrrolizin-7a (5H)-yl)methoxy)-5-methyl-5a,6,7,8,9,10-hexahydro-5H-4-oxa-3,10a, 11, 13,14-pentaaza-6,9-methanonaphtho[1,8-ab]heptalene]	–	–	729
C#Cc1c(F)ccc2cccc(-c3nc4c5c(nc(OCC67CCCN6CC(=C)C7)nc5c3F)N3C[C@H]5CC[C@H](N5)[C@H]3CCO4)c12 (stereo partly drawn) [Example Z640, (6aR,7S, 10R)-2-(8-ethynyl-7-fluoronaphthalen-1-yl)-1-fluoro-13-((2-methylenetetrahydro-1H-pyrrolizin-7a (5H)-yl)methoxy)-5,6,6a,7,8,9,10,11-octahydro-4-oxa-3,11a, 12, 14, 15-pentaaza-7,10-methanocyclohepta[4,5]cycloocta[1,2,3-de]naphthalene]	–	–	65.5
C=C1CN2C[C@H](F)CC2(COc2nc3c4c(nc(-c5cccc6cccc(C#N)c56)c(F)c4n2)O[C@@H](C)[C@@H]2[C@@H]4CC[C@H](CN32)N4)C1 (stereo partly drawn) [Example Z673, 8-((5S,5aS,6S,9R)-1-fluoro-12-(((2R)-2-fluoro-6-methylenetetrahydro-1H-pyrrolizin-7a (5H)-yl)methoxy)-5-methyl-5a,6,7,8,9,10-hexahydro-5H-4-oxa-3,10a,11,13,14-pentaaza-6,9-methanonaphtho[1,8-ab]heptalen-2-yl)-1-naphthonitrile]	–	–	147
C=C1CN2C[C@H](F)CC2(COc2nc3c4c(nc(-c5nc(N)cc(C)c5C5CC5)c(F)c4n2)O[C@@H](C)[C@@H]2[C@@H]4CC[C@H](CN32)N4)C1 (stereo partly drawn) [Example Z676, 5-cyclopropyl-6-((5S,5aS,6S,9R)-1-fluoro-12-(((2R)-2-fluoro-6-methylenetetrahydro-1H-pyrrolizin-7a (5H)-yl)methoxy)-5-methyl-5a,6,7,8,9,10-hexahydro-5H-4-oxa-3,10a, 11, 13, 14-pentaaza-6,9-methanonaphtho[1,8-ab]heptalen-2-yl)-4-methylpyridin-2-amine]	–	267	70
C=C1CN2C[C@H](F)CC2(COc2nc3c4c(nc(-c5cc(N)nc(C)c5C5CC5)c(F)c4n2)O[C@@H](C)[C@@H]2[C@@H]4CC[C@H](CN32)N4)C1 (stereo partly drawn) [Example Z680, 5-Cyclopropyl-4-((58,5aS,6S,9R)-1-Fluoro-12-(((2R)-2-Fluoro-6-Methylenetetrahydro-1H-Pyrrolizin-7a (5H)-Yl)Methoxy)-5-Methyl-5a,6,7,8,9,10-Hexahydro-5H-4-Oxa-3,10a,11,13,14-Pentaaza-6,9-Methanonaphtho[1,8-Ab]Heptalen-2-Yl)-6-Methylpyridin-2-Amine]	–	386	143
C#Cc1cccc2c(N)ccc(-c3nc4c5c(nc(OCC67CC(=C)CN6C[C@H](F)C7)nc5c3F)N3C[C@H]5CC[C@H](N5)[C@H]3[C@H](C)O4)c12 (stereo partly drawn) [Example Z686, 5-ethynyl-4-((5S,5aS,6S,9R)-1-fluoro-12-(((2R)-2-fluoro-6-methylenetetrahydro-1H-pyrrolizin-7a (5H)-yl)methoxy)-5-methyl-5a,6,7,8,9,10-hexahydro-5H-4-oxa-3,10a,11,13,14-pentaaza-6,9-methanonaphtho[1,8-ab]heptalen-2-yl) naphthalen-1-amine]	–	–	447
C#Cc1cccc2cc(N)cc(-c3nc4c5c(nc(OC)nc5c3F)N3C[C@H]5CC[C@H](N5)[C@H]3[C@H](C)O4)c12 [Example Z705, 5-ethynyl-4-((5S,5aS,6S,9R)-1-fluoro-12-methoxy-5-methyl-5a,6,7,8,9,10-hexahydro-5H-4-oxa-3,10a, 11,13,14-pentaaza-6,9-methanonaphtho[1,8-ab]heptalen-2-yl) naphthalen-2-amine]	–	–	195
